In patent US10829473B2, “Modulators of the cystic fibrosis transmembrane conductance regulator protein and methods of use” (AbbVie Overseas S.Á.R.L., priority 2017, dated 2020):
Like-named read-outs stand apart in the source and are kept apart here. Marks after values point to notes of the source that are not given here.

Target: T1, F508delCFTR (Homo sapiens, UniProt P13569, DEL508-508)
T1 construct: expressed in transfected cells; host or cells: CFBE41o- human lung derived epithelial cells (CFBE41o-F508delCFTR-HRP), doxycycline-inducible
Assay: Cell Surface Expression-Horse Radish Peroxidase (CSE-HRP) Assay;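 as to EC50 (with co-corrector): co-corrector chromenyl benzoic acid corrector at 2 or 3 µM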;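 as to Maximum % activity (without co-corrector): % of on-plate positive control chromenyl benzoic acid corrector at 2 or 3 µM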
Format: cell-based
Settings: for Maximum % activity (with co-corrector) / Emax: maximum at any tested concentration; for Emax: read-out: Maximum % activity (without co-corrector)
How it was run: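 Corrector compounds were given as 8-point 3-fold series from 20 or 30 μM, with or without a 2 μM co-corrector, for 18-24 h at 33 °C. Surface HRP was read by luminol luminescence as % of positive control; variable-Hill-slope sigmoidal fitting gave EC50 from triplicate plates.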

[1] = test compound alone, without co-corrector, read-out: EC50 (without co-corrector)
[2] = with co-corrector, read-out: EC50 (with co-corrector)
[3] = test compound with co-corrector
[4] = test compound with co-corrector, read-out: EC50 (with co-corrector)
[5] = test compound without co-corrector
[6] = test compound without co-corrector, read-out: EC50 (without co-corrector)

T1 sequence (P13569 with tags, fused parts or gaps DEL508-508): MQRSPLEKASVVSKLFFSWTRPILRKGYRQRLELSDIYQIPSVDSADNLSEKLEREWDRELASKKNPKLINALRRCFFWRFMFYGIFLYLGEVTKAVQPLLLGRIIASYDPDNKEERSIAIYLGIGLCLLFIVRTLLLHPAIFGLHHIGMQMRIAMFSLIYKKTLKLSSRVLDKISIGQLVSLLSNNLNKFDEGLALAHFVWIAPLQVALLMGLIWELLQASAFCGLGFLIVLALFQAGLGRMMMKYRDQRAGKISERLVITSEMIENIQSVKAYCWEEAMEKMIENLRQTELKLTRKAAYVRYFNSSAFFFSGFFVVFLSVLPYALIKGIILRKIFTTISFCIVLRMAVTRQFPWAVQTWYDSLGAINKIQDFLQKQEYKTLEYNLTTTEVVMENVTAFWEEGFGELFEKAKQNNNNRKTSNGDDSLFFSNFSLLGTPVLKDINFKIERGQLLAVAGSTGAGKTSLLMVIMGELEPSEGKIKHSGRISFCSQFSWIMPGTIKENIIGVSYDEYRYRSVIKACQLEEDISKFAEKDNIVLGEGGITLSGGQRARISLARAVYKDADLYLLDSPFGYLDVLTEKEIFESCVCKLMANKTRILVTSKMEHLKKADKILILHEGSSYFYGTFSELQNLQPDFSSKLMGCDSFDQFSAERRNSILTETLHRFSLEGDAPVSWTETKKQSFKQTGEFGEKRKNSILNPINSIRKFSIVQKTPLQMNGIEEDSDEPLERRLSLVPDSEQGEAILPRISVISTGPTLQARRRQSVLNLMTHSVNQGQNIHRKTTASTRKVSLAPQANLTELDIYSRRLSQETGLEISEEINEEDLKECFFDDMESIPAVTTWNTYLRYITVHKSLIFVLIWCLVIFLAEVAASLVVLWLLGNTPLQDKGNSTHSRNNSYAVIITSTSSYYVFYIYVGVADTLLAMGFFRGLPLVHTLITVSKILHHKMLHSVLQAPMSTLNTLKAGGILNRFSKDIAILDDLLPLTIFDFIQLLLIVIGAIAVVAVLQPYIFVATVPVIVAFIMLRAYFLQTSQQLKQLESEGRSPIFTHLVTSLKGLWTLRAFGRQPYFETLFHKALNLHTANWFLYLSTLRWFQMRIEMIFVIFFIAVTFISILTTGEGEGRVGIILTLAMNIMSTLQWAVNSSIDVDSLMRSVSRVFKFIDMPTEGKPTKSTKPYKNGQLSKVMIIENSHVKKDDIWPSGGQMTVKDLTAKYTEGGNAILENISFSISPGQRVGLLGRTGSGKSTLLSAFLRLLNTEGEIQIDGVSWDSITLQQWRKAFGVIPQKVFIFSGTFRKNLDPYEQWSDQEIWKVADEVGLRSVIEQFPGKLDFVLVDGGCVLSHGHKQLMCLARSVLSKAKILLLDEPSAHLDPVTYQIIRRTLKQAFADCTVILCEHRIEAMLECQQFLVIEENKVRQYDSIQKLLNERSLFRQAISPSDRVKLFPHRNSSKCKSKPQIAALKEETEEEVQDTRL

| SMILES | EC50 [1] [µM] | Maximum % activity (with co-corrector) (with co-corrector) | EC50 [2] [µM] | Emax (without co-corrector) [%] | Maximum % activity (with co-corrector) [3] | EC50 [4] [µM] | Emax [5] [%] | EC50 [6] [µM] | EC50 (with co-corrector) [3] | EC50 (without co-corrector) [5] |
| --- | --- | --- | --- | --- | --- | --- | --- | --- | --- | --- |
| COc1ncc(C)cc1C1(C(=O)NS(=O)(=O)c2cccc3ccccc23)CC1 [Example I-15, 1-(2-methoxy-5-methylpyridin-3-yl)-N-(naphthalene-1-sulfonyl)cyclopropane-1-carboxamide] | 3 to 10 | +++ (≥350) | 3 to 10 | > 150 |  |  |  |  |  |  |
| COc1ccc(Br)cc1C1(C(=O)NS(=O)(=O)c2cccc3ccccc23)CC1 [Example I-1, 1-(5-bromo-2-methoxyphenyl)-N-(naphthalene-1-sulfonyl)cyclopropane-1-carboxamide] | < 3 | +++ (≥350) | < 3 | > 150 |  |  |  |  |  |  |
| COc1ccc(C)cc1C1(C(=O)NS(=O)(=O)c2cccc3nc(C)ccc23)CC1 [Example I-64, 1-(2-methoxy-5-methylphenyl)-N-(2-methylquinoline-5-sulfonyl)cyclopropane-1-carboxamide] | < 3 | +++ (≥350) | < 3 | > 150 |  |  |  |  |  |  |
| CCOc1ccc(C(C)(C)COC)cc1C1(C(=O)NS(=O)(=O)c2cccc3ncccc23)CC1 [Example I-101, 1-[2-ethoxy-5-(1-methoxy-2-methylpropan-2-yl)phenyl]-N-(quinoline-5-sulfonyl)cyclopropane-1-carboxamide] | < 3 | +++ (≥350) | < 3 | > 150 |  |  |  |  |  |  |
| COc1ccc(C2CCC2)cc1C1(C(=O)NS(=O)(=O)c2cccc3c2CCCN3)CCC1 [Example I-10, 1-(5-cyclobutyl-2-methoxyphenyl)-N-(1,2,3,4-tetrahydroquinoline-5-sulfonyl)cyclobutane-1-carboxamide] | 3 to 10 | +++ (≥350) | < 3 | > 150 |  |  |  |  |  |  |
| COc1ccc(C2CCC2)cc1C1(C(=O)NS(=O)(=O)c2cccc3nc(N)ccc23)CC1 [Example I-67, N-(2-aminoquinoline-5-sulfonyl)-1-(5-cyclobutyl-2-methoxyphenyl)cyclopropane-1-carboxamide] | 3 to 10 | +++ (≥350) | < 3 | > 150 |  |  |  |  |  |  |
| COCC1(c2ccc(OC)c(C3(C(=O)NS(=O)(=O)c4cccc5nc(C)ccc45)CC3)c2)CC1 [Example I-74, 1-{2-methoxy-5-[1-(methoxymethyl)cyclopropyl]phenyl}-N-(2-methylquinoline-5-sulfonyl)cyclopropane-1-carboxamide] | < 3 | +++ (≥350) | < 3 | > 150 |  |  |  |  |  |  |
| COc1ncc(C(F)(F)F)cc1C1(C(=O)NS(=O)(=O)c2cccc3ccccc23)CC1 [Example I-8, 1-[2-methoxy-5-(trifluoromethyl)pyridin-3-yl]-N-(naphthalene-1-sulfonyl)cyclopropane-1-carboxamide] | < 3 | +++ (≥350) | < 3 | > 150 |  |  |  |  |  |  |
| COc1ccc(OC)c(C2(C(=O)NS(=O)(=O)c3cccc4ccccc34)CC2)c1 [Example I-28, 1-(2,5-dimethoxyphenyl)-N-(naphthalene-1-sulfonyl)cyclopropane-1-carboxamide] | < 3 | +++ (≥350) | < 3 | > 150 |  |  |  |  |  |  |
| COc1ccc(C(C)C)cc1C1(C(=O)NS(=O)(=O)c2cccc3ncccc23)CC1 [Example I-35, 1-[2-methoxy-5-(propan-2-yl)phenyl]-N-(quinoline-5-sulfonyl)cyclopropane-1-carboxamide] | < 3 | +++ (≥350) | < 3 | > 150 |  |  |  |  |  |  |

Next, values leading:

| EC50 [1] [µM] | Maximum % activity (with co-corrector) (with co-corrector) | EC50 [2] [µM] | Emax (without co-corrector) [%] | Maximum % activity (with co-corrector) [3] | EC50 [4] [µM] | Emax [5] [%] | EC50 [6] [µM] | EC50 (with co-corrector) [3] | EC50 (without co-corrector) [5] | SMILES |
| --- | --- | --- | --- | --- | --- | --- | --- | --- | --- | --- |
| < 3 | +++ (≥350) | < 3 | > 150 |  |  |  |  |  |  | COc1cc(F)c(C(C)C)cc1C1(C(=O)NS(=O)(=O)c2cccc3c2CCCN3)CC1 [II-27] |
|  |  |  |  | + (<150) | > 10 | < 50 | > 10 |  |  | COc1ncc(C2(C(=O)NS(=O)(=O)c3cccc4c3CCCN4)CC2)c(OC)n1 [GIII-12] |
| < 3 | +++ (≥350) | < 3 | > 150 |  |  |  |  |  |  | O=C(NS(=O)(=O)c1cccc2ncccc12)C1(c2ccc(C(F)(F)F)nc2N2CCCC2)CC1 [Example GI-15, 1-[2-(pyrrolidin-1-yl)-6-(trifluoromethyl)pyridin-3-yl]-N-(quinoline-5-sulfonyl)cyclopropane-1-carboxamide] |
|  |  |  |  | +++ (≥350) | 3 to 10 | > 150 | 3 to 10 |  |  | CC(C)Oc1ncc(C2CCC2)cc1C1(C(=O)NS(=O)(=O)c2cccc3c2CCCN3)CC1 [GII-25, 1-{5-cyclobutyl-2-[(propan-2-yl)oxy]pyridin-3-yl}-N-(1,2,3,4-tetrahydroquinoline-5-sulfonyl)cyclopropane-1-carboxamide] |
|  |  |  |  | +++ (≥350) | < 3 | > 150 | < 3 |  |  | COc1cnc(OCC2CC2)c(C2(C(=O)NS(=O)(=O)c3cccc4[nH]ccc34)CC2)c1 [Example GI-88, 1-[2-(cyclopropylmethoxy)-5-methoxypyridin-3-yl]-N-(1H-indole-4-sulfonyl)cyclopropane-1-carboxamide] |
|  |  |  |  | ++ (≥150 and <350) |  | 50 to 150 |  | ++^a | ++^a | COCCOc1cnc(OC)cc1C1(C(=O)NS(=O)(=O)c2cccc3ncccc23)CC1 [GIII-11] |
|  |  |  |  | +++ (≥350) | < 3 | > 150 | < 3 |  |  | Cc1ccc(C2(C(=O)NS(=O)(=O)c3cccc4ncccc34)CC2)c(OC(C)C)n1 [Example GI-80, 1-{6-methyl-2-[(propan-2-yl)oxy]pyridin-3-yl}-N-(quinoline-5-sulfonyl)cyclopropane-1-carboxamide] |
| 3 to 10 | +++ (≥350) | < 3 | > 150 |  |  |  |  |  |  | CCc1cnc(OC(C)C)c(C2(C(=O)NS(=O)(=O)c3cccc4c3CCCN4)CC2)c1 [Example GI-14, 1-{5-ethyl-2-[(propan-2-yl)oxy]pyridin-3-yl}-N-(1,2,3,4-tetrahydroquinoline-5-sulfonyl)cyclopropane-1-carboxamide] |
|  |  |  |  | ++ (≥150 and <350) |  | < 50 |  | ++^a | ++^a | CC(C)COc1cnc(Cl)c(C2(C(=O)NS(=O)(=O)c3cccc4ncccc34)CC2)c1 [GIII-5] |
| > 10 | + (<150) | > 10 | < 50 |  |  |  |  |  |  | O=C(NS(=O)(=O)c1cccc(OC(F)(F)F)c1)C1(c2ccc(Cl)cc2Cl)CC1 [Example III-64, 1-(2,4-dichlorophenyl)-N-[3-(trifluoromethoxy)benzene-1-sulfonyl]cyclopropane-1-carboxamide] |
| 3 to 10 | +++ (≥350) | 3 to 10 | > 150 |  |  |  |  |  |  | COc1ccc(C2(C)COC2)cc1C1(C(=O)NS(=O)(=O)c2cccc3ncccc23)CC1 [II-89] |
|  |  |  |  | +++ (≥350) | < 3 | > 150 | < 3 |  |  | Cc1ccc2c(S(=O)(=O)NC(=O)C3(c4nc(OCC(C)C)ccc4OC(C)C)CC3)cccc2n1 [Example GI-90, 1-{6-(2-methylpropoxy)-3-[(propan-2-yl)oxy]pyridin-2-yl}-N-(2-methylquinoline-5-sulfonyl)cyclopropane-1-carboxamide] |
| < 3 | +++ (≥350) | < 3 | 50 to 150 |  |  |  |  |  |  | COc1ncc(C2CCC2)c(C)c1C1(C(=O)NS(=O)(=O)c2cccc3cnn(C)c23)CC1 [II-43] |
| > 10 | + (<150) | 3 to 10 | < 50 |  |  |  |  |  |  | O=C(CCc1ccccc1)N1CCC(S(=O)(=O)NC(=O)C2(c3ccc(Cl)cc3Cl)CC2)CC1 [Example III-79, 1-(2,4-dichlorophenyl)-N-[1-(3-phenylpropanoyl)piperidine-4-sulfonyl]cyclopropane-1-carboxamide] |
| 3 to 10 | +++ (≥350) | < 3 | 50 to 150 |  |  |  |  |  |  | COc1ncc(C2CCC2)c(C)c1C1(C(=O)NS(=O)(=O)c2cccc3ccn(C)c23)CC1 [II-42] |
|  |  |  |  | +++ (≥350) | < 3 | > 150 | < 3 |  |  | Cc1cnc(OC(C)C)c(C2(C(=O)NS(=O)(=O)c3cccc4nc(C)ccc34)CC2)c1 [Example GI-58, 1-{5-methyl-2-[(propan-2-yl)oxy]pyridin-3-yl}-N-(2-methylquinoline-5-sulfonyl)cyclopropane-1-carboxamide] |
|  |  |  |  | ++ (≥150 and <350) | 3 to 10 | < 50 | > 10 |  |  | CCc1ccncc1C1(C(=O)NS(=O)(=O)c2cccc3c2CCCN3)CC1 [GII-21, 1-(4-ethylpyridin-3-yl)-N-(1,2,3,4-tetrahydroquinoline-5-sulfonyl)cyclopropane-1-carboxamide] |
| < 3 | +++ (≥350) | < 3 | > 150 |  |  |  |  |  |  | CC(C)COc1ncc(N(C)C)cc1C1(C(=O)NS(=O)(=O)c2cccc3ncccc23)CC1 [II-112] |
| < 3 | +++ (≥350) | < 3 | > 150 |  |  |  |  |  |  | COCc1ccc(OC)c(C2(C(=O)NS(=O)(=O)c3cccc4ncccc34)CC2)c1 [II-49] |
